Key:
Format in all cases: in vivo
mice [1] = experiment: Chimney test: ability of mice to back up and out of a vertical glass cylinder within 30 seconds; details: Mus musculus, ip
Experimental: (§1) Sedative effects of 8-chloro-1-methyl-6-phenyl-4H-s-triazolo-[4,3-a][1,4]benzodiazepine are shown by the following tests in mice:
Chimney test: [Med. Exp. 4, 145 (1961)]: The effective intraperitoneal dosage for 50% of mice (ED50) is 0.09 mg./kg. The test determines the ability of mice to back up and out of a vertical glass cylinder within 30 seconds. At the effective dosage, 50% of the mice failed doing it.

mice [2] = experiment: Dish test: mice remaining in Petri dish for more than 3 minutes; details: Mus musculus
Experimental: as §1
Dish test: Mice in Petri dishes (10 cm. diameter, 5 cm. high, partially embedded in wood shavings), climb out in a very short time, when not treated. Mice remaining in the dish for more than 3 minutes indicates tranquilization. ED50 equals the dose of test compound at which 50% of the mice remain in the dish.

mice [3] = experiment: Pedestal test: mice staying on the pedestal for more than 1 minute; details: Mus musculus
Experimental: as §1
Pedestal test: The untreated mouse leaves the pedestal in less than a minute to climb back to the floor of the standard mouse box. Tranquilized mice will stay on the pedestal for more than 1 minute. The ED50 (intraperitoneal administration) is 0.20 mg./kg.; the ED50 (oral administration) is 0.9 mg.kg.

mice [4] = experiment: Nicotine antagonism test (nicotine salicylate 2 mg./kg.); details: Mus musculus
Experimental: Nicotine antagonism test: Mice in a group of 6 are injected with the test compound (8-chloro-1-methyl-6-phenyl-4H-s-triazolo[4,3-a][1,4]benzodiazepine). Thirty minutes later the mice including control (untreated) mice are injected with nicotine salicylate (2 mg./kg.). The control mice show overstimulation, i.e., (1) running convulsions followed by (2) tonic extensor fits; followed by (3) death.
Ni =]nicotine antagonism (3) test

mice [5] = experiment: Antagonism to strychnine (as sulfate), 3 mg./kg. intraperitoneally; details: Mus musculus, po, 4 h, read-out: effective dosage ED50, antagonism to strychnine
Experimental: Antagonism to strychnine (as sulfate): The effective dosage ED50 of 8-chloro-1-methyl-6-phenyl-4H-s-triazolo[4,3-a][1,4]benzodiazepine is 1 mg./kg. orally in mice. The test consists in orally administering into groups of 6 mice the test compound, 8-chloro-1-methyl-6-phenyl-4H-s-triazolo[4,3-a][1,4]benzodiazepine, and 30 minutes later 3 mg./kg. strychnine sulfate intraperitoneally. The survivors after 4 hours reflect the activity of the compound as a muscle relaxant and antispasmodic. A dosage of 3 mg./kg. of strychnine sulfate is routinely fatal to all the control mice.

[6] = intraperitoneal injection, table 1, read-out: ED50 Ch (chimney test)
[7] = ip, intraperitoneal injection, table 1, read-out: ED50 D (dish test)
[8] = ip, intraperitoneal injection, table 1, read-out: ED50 P (pedestal test)
[9] = ip, intraperitoneal injection, table 1, read-out: ED50 Ni (nicotine antagonism (3) test)

Structure (SMILES)	ED50 (mice [1]; [6]) [mg/kg]	ED50 (mice [2]; [7]) [mg/kg]	ED50 (mice [3]; [8]) [mg/kg]	ED50 (mice [4]; [9]) [mg/kg]	ED50 (mice [1]; intraperitoneal, mice, read-out: effective intraperitoneal dosage for 50% of mice (ED50), chimney test) [mg/kg]	ED50 (mice [2]; ip, intraperitoneal administration, mice, read-out: ED50, dish test) [mg/kg]	ED50 (mice [2]; oral, mice, read-out: oral ED50, dish test) [mg/kg]	ED50 (mice [3]; ip, intraperitoneal administration, mice, read-out: ED50, pedestal test) [mg/kg]	ED50 (mice [3]; oral administration, mice, read-out: ED50, pedestal test) [mg/kg]	ED50 (mice [4]; ip, intraperitoneal, 30 minutes before nicotine salicylate 2 mg./kg., mice, read-out: intraperitoneal dosage that protected 50% of the mice against (2) tonic extensor fits and (3) death (ED50)) [mg/kg]	ED50 (mice [4]; oral, before nicotine salicylate 2 mg./kg., mice, read-out: oral ED50, nicotine antagonism) [mg/kg]	ED50 (mice [5]) [mg/kg]
Cc1nnc2n1-c1ccc(C(F)(F)F)cc1C(c1ccccc1)=NC2 [1-methyl-6-phenyl-8-(trifluoromethyl)-4H-s-triazolo[4,3-a][1,4]benzodiazepine]	0.16	0.16	0.22	0.08								
CCc1nnc2n1-c1ccc(Cl)cc1C(c1ccccc1)=NC2 [8-Chloro-1-ethyl-6-phenyl-4H-s-triazolo[4,3-a]-[1,4]benzodiazepine]	0.8	0.9	0.9	0.2								
Cc1nnc2n1-c1ccc(Cl)cc1C(c1ccccc1Cl)=NC2 [8-Chloro-1-methyl-6-(o-chlorophenyl)-4H-s-triazolo[4,3-a][1,4]benzodiazepin]	0.05	0.028	0.045	0.008								
Cc1nnc2n1-c1ccc(Cl)cc1C(c1c(F)cccc1F)=NC2 [8-chloro-1-methyl-6-(2,6-difluorophenyl)-4H-s-triazolo[4,3-a][1,4]benzodiazepine]	0.009	0.016	0.02	0.018								
Cc1nnc2n1-c1ccc(Cl)cc1C(c1ccccc1F)=NC2 [8-chloro-1-methyl-6-(o-fluorophenyl)-4H-s-triazolo[4,3-a][1,4]benzodiazepine]	0.056	0.016	0.028	0.009								
Cc1nnc2n1-c1ccc(Cl)cc1C(c1ccccc1)=NC2 [8-chloro-1-methyl-6-phenyl-4H-s-triazolo[4,3-a][1,4]benzodiazepine]					0.09	0.15	0.045	0.2	0.9	0.1	0.04	1
Clc1ccc2c(c1)C(c1ccccc1)=NCc1nncn1-2 [8-chloro-6-phenyl-4H-s-triazolo[4,3-a][1,4]benzodiazepine]	0.25	0.4	0.7	0.08								

— US3987052A, “6-Phenyl-4H-s-triazolo[4,3-a][1,4]benzodiazepines” (priority 1969, dated 1976)
